Experimental data published in patent US6833372B2, “Non-peptide GnRH agents, Pharmaceutical compositions, and methods for their use” (Pfizer, Inc., priority 2002, dated 2004).
“And” between values parts separate entries of the source, which are not always exact repeats. Equal entries are not always repeated.

Key:
[1] = target: T1, human GnRH receptors (Homo sapiens, UniProt P30968); test: Radioligand binding: inhibition of 125I-GnRH-A binding to human GnRH receptor membranes; conditions: HEK 293 cell membranes
T1 construct: expressed in transfected cells; host or cells: HEK 293 cells, stably transfected; membranes
T1 sequence (P30968 1-328): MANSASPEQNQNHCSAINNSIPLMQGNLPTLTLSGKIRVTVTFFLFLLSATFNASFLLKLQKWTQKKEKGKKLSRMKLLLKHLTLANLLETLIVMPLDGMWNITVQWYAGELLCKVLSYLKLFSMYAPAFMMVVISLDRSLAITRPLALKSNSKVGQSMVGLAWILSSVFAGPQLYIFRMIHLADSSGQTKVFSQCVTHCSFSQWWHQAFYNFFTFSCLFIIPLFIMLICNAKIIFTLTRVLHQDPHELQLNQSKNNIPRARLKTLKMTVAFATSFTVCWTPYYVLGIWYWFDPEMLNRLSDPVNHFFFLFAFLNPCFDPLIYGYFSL
In short: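 Membranes from rat pituitaries, or HEK 293 cells stably expressing mouse or human receptor, incubated 1 hour at room temperature with ~0.04-0.06 nM radioligand (HEPES pH 7.4, EDTA, MgCl2, BSA) and competitor at 0.1-10,000 nM. Bound ligand collected by GF/C filtration and counted; Ki derived from IC50 by Cheng-Prusoff.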

[2] = target: T2, rat GnRH receptor (Rattus norvegicus, UniProt P30969); test: Radioligand binding: inhibition of 125I-GnRH-A binding to rat GnRH receptor (rat pituitary membranes); conditions: read-out: Ki (nM), Inhibition Binding of 125I-GnRH-A to GnRH Receptors
T2 construct: or rat pituitaries (Pel Freez Biologicals, Rogers, Ark.) were homogenized; tissue Pel Freez Biologicals; host or cells: rat pituitaries (membrane preparation)
T2 sequence (P30969 1-327): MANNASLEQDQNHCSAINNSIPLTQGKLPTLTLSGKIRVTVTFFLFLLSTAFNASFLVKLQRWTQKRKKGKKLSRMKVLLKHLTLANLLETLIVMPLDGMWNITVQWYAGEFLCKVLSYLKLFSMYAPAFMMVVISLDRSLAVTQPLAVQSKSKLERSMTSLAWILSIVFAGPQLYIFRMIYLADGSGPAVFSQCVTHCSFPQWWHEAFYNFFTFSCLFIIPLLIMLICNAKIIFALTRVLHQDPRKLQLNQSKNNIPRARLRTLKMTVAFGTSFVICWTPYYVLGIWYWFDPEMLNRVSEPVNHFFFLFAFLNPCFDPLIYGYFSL
Procedure: HEK 293 cells containing mouse or human receptors, or rat pituitaries (Pel Freez Biologicals, Rogers, Ark.) were homogenized in buffer A containing: 50 mM Tris (pH 7.4), 0.32 M sucrose, 2 mM EGTA, 1 mM PMSF, 5 μg/ml aprotinen, 5 μg/ml Pepstatin A, and 1 μg/ml leupeptin. Homogenized cells were centrifuged at 4° C. at 20,000×g for 25 minutes, re-suspended in buffer A and re-centrifuged at 4° C. at 20,000×g for an additional 25 minutes. Total membrane protein was determined with a BCA kit (Pierce, Rockford, Ill.). Membranes were stored at −70° C. at a final membrane protein concentration of approximately 5 mg/ml.
The radioiodinated agonist analog of GnRH, [des-Gly^10,D-Ala^6]GnRH ethylamide (^125I-GnRH-A), was used as the radioligand. […] The reaction mixture was vortexed and incubated for 1 minute at room temperature. After one minute, the mixture was vortexed and allowed to incubate for an additional minute. 2 ml of 0.5 M acetic acid/1% BSA was added to the reaction tube and the mixture was added to a C18 Sep-Pak cartridge. The cartridge was washed with subsequent washes of 5 ml H2O and 5 ml 0.5 M acetic acid and then eluted with 5×1 ml of 60% CH3CN/40% 0.5 M acetic acid. The eluate was diluted with 3× volume of HPLC buffer A (0.1% TFA in H2O) and loaded onto a C18 column. The iodinated product was eluted over 20-25 min with a gradient of 25-100% CH3CN containing 0.1% TFA. The radioactive fractions (750 μl/fraction) were collected into clean polypropylene tubes containing 100 μl of 10% BSA. Fractions were assessed for biological activity by radioligand binding. Specific activity of the radioligand was approximately 2200 Ci/mmol.
Membranes were diluted to 0.01-0.5 mg/ml (depending upon the species of receptor) with assay buffer containing 50 mM HEPES (pH 7.4), 1 mM EDTA, 2.5 mM MgCl2, and 0.1% BSA. Membranes (diluted to utilize similar receptor numbers between assays) were incubated with approximately 0.04-0.06 nM ^125I-GnRH-A in the presence or absence of competing agents (0.1-10,000 nM) in a total volume of 200 μl in 96-well polypropylene plates for 1 hour at room temperature. Assays were stopped by rapid filtration onto 96-well GF/C filters soaked in 0.1% polyethylenimine (PEI) utilizing a Packard 96-well cell harvester. Filters were washed three times with ice-cold PBS (50 mM NaPO4, 0.9% NaCl, 2 mM MgCl2, and 0.02% NaN3, pH 7.4). 35 μl of scintillation cocktail was added to each filter well and filters were counted on a Packard Topcount. Control dose-response curves were generated to GnRH (0.1 nM-100 nM) in each competition binding experiment. Ki values were calculated from IC50 values according to Cheng et al., Biochemical Pharmacol. 22: 3099-3108, 1973. [formula]

[3] = In vitro metabolism: disappearance of parent compound in human liver microsomes; assay type: in vitro ADME; conditions: 5 uM compound, 0.5 mg/ml protein, 2 mM NADPH, 30 minutes 37° C.
Procedure: (§1) Human, rat, dog, and monkey liver microsomes were isolated by differential centrifugation. Specimens of human liver were obtained from the International Institute for the Advancement of Medicine (Scranton, Pa.). The disappearance of the parent compound was studied in a mixture containing 5 uM compound, 0.5 mg/ml microsomal protein, and 2 mM NADPH in 50 mM K phosphate buffer, pH 7.4. Samples were incubated for 30 minutes at 37° C. The reaction was terminated by the addition of acetonitrile and compounds analyzed by LC-MS as described above.

[4] = In vitro metabolism: disappearance of parent compound in rat liver microsomes (male, female); assay type: in vitro ADME; conditions: 5 uM compound, 30 minutes 37° C.; for Fem. Rat (FR) % rem. 30′: female rat liver microsomes; for Male Rat (MR) % rem. 30′: male rat liver microsomes
Procedure: as §1

[5] = In vitro metabolism: disappearance of parent compound in dog liver microsomes; assay type: in vitro ADME; conditions: 5 uM compound, 30 minutes 37° C.
Procedure: as §1

[6] = In vitro metabolism: disappearance of parent compound in monkey liver microsomes; assay type: in vitro ADME; conditions: 5 uM compound, 30 minutes 37° C.
Procedure: as §1

| Ki [1] [nM] | Ki [2] [nM] | Human % rem. 30′ [3] | Fem. Rat (FR) % rem. 30′ [4] | Male Rat (MR) % rem. 30′ [4] [%] | Dog % rem. 30′ [5] [%] | Monkey % rem. [6] [%] | Structure (SMILES) |
| --- | --- | --- | --- | --- | --- | --- | --- |
| 6 | 4.1 | 83% | 76% | 38 | 34 | 2 | COc1nc(NCCN2CCOCC2)nc(OC)c1NC(=O)c1ccc(Cc2cc3c(cc2C)C(C)(C)OC3(C)C)o1 [Example D4, N-{4,6-dimethoxy-2-[(2-morpholin-4-ylethyl)amino]pyrimidin-5-yl}-5-[(1,1,3,3,6-pentamethyl-1,3-dihydro-2-benzofuran-5-yl)methyl]-2-furamide] |
| 14 | 11 | 76% and 83% | 84% and 82% | – | – | – | COc1nc(NCCN(C)C(=O)c2ccc(Cc3cc4c(cc3C)C(C)(C)OC4(C)C)o2)nc(OC)c1NC(=O)c1ccc(Cc2cc3c(cc2C)C(C)(C)OC3(C)C)o1 [Example D2] |
| 4.8 | 2.6 | – | – | – | – | – | COc1nc(N(CC(C)O)CC(C)O)nc(OC)c1NC(=O)c1ccc(Cc2cc3c(cc2C)C(C)(C)OC3(C)C)o1 (stereo not drawn) [Example D53, N-{2-[Bis(2-hydroxypropyl)amino]-4,6-dimethoxypyrimidin-5-yl)-5-[(1,1,3,3,6-pentamethyl-1,3-dihydro-2-benzofuran-5-yl)methyl]-2-furamide] |
| 8.7 | 1.9 | – | – | – | – | – | COc1nc(NCCCn2ccnc2)nc(OC)c1NC(=O)c1ccc(Cc2cc3c(cc2C)C(C)(C)OC3(C)C)o1 [Example D19, N-(2-{[3-(1H-Imidazol-1-yl)propyl]amino}-4,6-dimethoxypyrimidin-5-yl}-5-[(1,1,3,3,6-pentamethyl-1,3-dihydro-2-benzofuran-5-yl)methyl]-2-furamide] |
| 12 | 12 | – | – | – | – | – | COc1nc(NCCCN2CCOCC2)nc(OC)c1NC(=O)c1ccc(Cc2c(C)cc(C)c3c2OCC3(C)C)o1 [Example H6, N-{4,6-Dimethoxy-2-[(3-morpholin-4-ylpropyl)amino]-pyrimidin-5-yl}-5-[(3,3,4,6-tetramethyl-2,3-dihydro-1-benzofuran-7-yl)methyl]-2-furamide] |
| 4 | 2.6 | – | – | – | – | – | COc1nc(NCc2c(F)cccc2F)nc(OC)c1NC(=O)c1ccc(Cc2cc3c(cc2C)C(C)(C)OC3(C)C)o1 [Example D73, N-{2-[(2,6-difluorobenzyl)amino]-4,6-dimethoxypyrimidin-5-yl}-5-[(1,1,3,3,6-pentamethyl-1,3-dihydro-2-benzofuran-5-yl)methyl]-2-furamide] |
| 42 | 14 | – | – | – | – | – | COc1nc(N2CCc3nc(N(C)C)ncc3C2)nc(OC)c1NC(=O)c1ccc(Cc2cc3c(cc2C)C(C)(C)OC3(C)C)o1 [Example D59, N-{2-[2-(Dimethylamino)-7,8-dihydropyrido[4,3-d]pyrimidin-6(5H)-yl]-4,6-dimethoxypyrimidin-5-yl}-5-[(1,1,3,3,6-pentamethyl-1,3-dihydro-2-benzofuran-5-yl)methyl]-2-furamide] |

Second part, the molecule before the results:

| Structure (SMILES) | Ki [1] [nM] | Ki [2] [nM] | Human % rem. 30′ [3] | Fem. Rat (FR) % rem. 30′ [4] | Male Rat (MR) % rem. 30′ [4] [%] | Dog % rem. 30′ [5] [%] | Monkey % rem. [6] [%] |
| --- | --- | --- | --- | --- | --- | --- | --- |
| COc1nc(NCCN2CCNCC2)nc(OC)c1NC(=O)c1ccc(Cc2cc3c(cc2C)C(C)(C)OC3(C)C)o1 [Example D14, N-{4,6-Dimethoxy-2-[(2-piperazin-1-ylethyl)amino]-pyrimidin-5-yl}-5-[(1,1,3,3,6-pentamethyl-1,3-dihydro-2-benzofuran-5-yl)methyl]-2-furamide] | 3.5 | 0.4 | 86% | 90% | 78 | 98 | 63 |
| COc1nc(N(CCCN2CCCCC2)CCCN2CCCCC2)nc(OC)c1NC(=O)c1ccc(Cc2cc3c(cc2C)C(C)(C)OC3(C)C)o1 [Example D21, N-{2-[Bis(3-piperidin-1-ylpropyl)amino]-4,6-dimethoxypyrimidin-5-yl}-5-[(1,1,3,3,6-pentamethyl-1,3-dihydro-2-benzofuran-5-yl)methyl]-2-furamide] | 3.3 | 1.3 | 89% | 89% | 87 | 67 | 85 |
| COc1nc(NCCCN2CCN(CCCN)CC2)nc(OC)c1NC(=O)c1ccc(Cc2cc3c(cc2C)C(C)(C)OC3(C)C)o1 [Example D18, N-[2-({3-[4-(3-Aminopropyl)piperazin-1-yl]propyl}amino)-4,6-dimethoxypyrimidin-5-yl}-5-[(1,1,3,3,6-pentamethyl-1,3-dihydro-2-benzofuran-5-yl)methyl]-2-furamide] | 0.97 | 0.3 | 82% | 97% | 74 | 84 | 80 |
| COc1nc(NCc2ccc(N)cc2)nc(OC)c1NC(=O)c1ccc(Cc2cc3c(cc2C)C(C)(C)OC3(C)C)o1 [Example D44, N-{2-[(4-Aminobenzyl)amino]-4,6-dimethoxypyrimidin-5-yl}-5-[(1,1,3,3,6-pentamethyl-1,3-dihydro-2-benzofuran-5-yl)methyl]-2-furamide] | 8.6 | 3.4 | – | – | – | – | – |
| COc1nc(Oc2ccccc2)nc(OC)c1NC(=O)c1ccc(Cc2cc3c(cc2C)C(C)(C)OC3(C)C)o1 [Example A2, 5-(1,1,3,3,6-Pentamethyl-1,3-dihydro-isobenzofuran-5-ylmethyl)-furan-2-carboxylic acid (4,6-dimethoxy-2-phenoxy-pyrimidin-5-yl)-amide] | 7.6 | 9 | – | – | – | – | – |
| COc1nc(NCCCN2CCN(C)CC2)nc(OC)c1NC(=O)c1ccc(Cc2c(C)cc(C)c3c2OCC3(C)C)o1 [Example H5] | 11 | 8.2 | – | – | – | – | – |
